Measurements taken from EP3492483A1, “COMPOUNDS AND METHODS FOR TREATING BACTERIAL INFECTIONS” (The Washington University, priority 2009, dated 2011).
Values after ≈ are worked out from the molar mass of the structure shown. “Also recorded” adds a separate entry of the source.

How the values were obtained:
PBC-1 [1] = test: Growth curve with TMP-SMZ (MIC); type: cell-based, UPEC
[2] = 3 days of 54 µg/ml TMP and 270 µg/ml SMZ in drinking water
Description: (§1) Mice were either untreated or IP treated with mannoside ZFH-2056 30 min prior to inoculation with bacteria. […] Not only do the bacteria escape the immune system in their intracellular niche, they are also able to escape exposure to effective antibiotics.
Antibiotic treatment. […] Water was changed daily for 3 days prior to inoculation with UTI89.

UTI89 biofilm [3] = test: Biofilm formation inhibition assay (PVC, crystal violet); type: cell-based, UPEC; settings: PVC, LB, room temperature; read-out: IC50 of mannoside on UTI89 biofilm formation
Description: First, the ability of mannoside derivatives to prevent UPEC type 1 dependent biofilm formation in the published Kolter assay was measured as optimized for the prototypic UTI89 strain used in these assays.
(§3) These mannosides were evaluated first for their ability to inhibit biofilm formation or disrupt preformed biofilms. Biofilm inhibition was evaluated on FimH-dependent UTI89 biofilms grown on PVC in LB at room temperature. […] Biofilm disruption was evaluated by the addition of mannosides to preformed 24 h biofilms followed by growth for an additional 16 h.
UTI89 biofilm was grown in LB +/- mannoside for 24 h at 22°C in PVC plates and quantitated using crystal violet.
Biofilm assay. UTI89 was grown in LB broth in wells of PVC microtiter plates at 23°C in the presence of individual mannosides at varying concentrations. After 48 h of growth, wells were rinsed with water and stained with crystal violet for quantification as described. For biofilm disruption activity in PVC plates, UTI89 was grown in LB broth in wells of PVC microtiter plates at 23°C. After 24 h of growth, mannoside was added and biofilms were grown for an additional 16h. Wells were then rinsed, stained with crystal violet and quantified.

UTI89 [4] = test: IBC enumeration by LacZ staining of whole bladders; type: in vivo, mice
Description: (§2) After invasion, UPEC are able to rapidly replicate to form IBCs, thus dramatically expanding in numbers. After maturation of the IBC, bacteria are able to disperse from the biomass and spread to neighboring cells to expand the buildup in bacterial numbers via next generation IBC. The ability of mannosides to block IBC formation was evaluated based on LacZ staining of whole mount bladders, a protocol developed to enumerate IBCs. Whole bladder titers were also determined by quantifying colony forming units (CFUs) at 6 hours post-infection and later time points as test compounds were further developed.
To test the efficacy of the mannosides in vivo, UTI89 expressing type 1 pili were pre-incubated with mannosides, inoculated into mice and IBCs were quantitated at 6 hours post-infection (hpi).
Enumeration of bladder IBCs. For bacterial pretreatment experiments, mannoside was added to the bacterial suspension and incubated for 20 min. For animal pretreatment experiments, mannoside ZFH-2056 was administered either IP (5 mg/kg) or orally (100 mg/kg) 30 min prior to inoculation with UTI89. To accurately count the number of IBCs, mice were sacrificed 6 hpi and bladders were aseptically removed, bisected, splayed on silicone plates and fixed in 2% paraformaldehyde (v/v). IBCs, readily discernable as punctate violet spots, were quantified by LacZ staining of whole bladders.

FimH [5] = biological target: T1, FimH (Escherichia coli, UniProt Q1R2J4); test: cell-based; parameters: species or system UPEC
T1 construct: endogenous in cells; host or cells: type 1 piliated UPEC bacteria
Description: In some embodiments, activity of the compound is measured using hemmagglutination titer of guinea pig red blood cells. Hemagglutination of guinea pig red blood cells by type1 piliated UPEC is dependent upon FimH mannose binding ability and serial dilutions allow a quantitative analysis.
Biological activity against FimH was evaluated using a guinea pig red blood cell-based hemagglutination (HA) assay (ref) in which the concentration of the mannoside on reducing agglutination by 50% was used as the primary endpoint (50% HA titer).
Hemagglutination of guinea pig red blood cells by type1 piliated UPEC is dependent upon FimH mannose binding ability.

UTI89 [6] = test: Bladder bacterial titer (CFU), mouse UTI model, UTI89; type: in vivo, mice; settings: for bacterial titers upon boosting: pretreatment plus 2 treatments every 8h
UTI89 [7] = test: as above; type: in vivo, mice; settings: for total bacterial CFUs: 6 hpi
Description: as §2
Animal infections. Bacteria were grown under type 1 pili-inducing conditions (2x24 h at 37°C statically in LB). The bacteria were harvested and resuspended to an OD600 of 0.5 in PBS. Eight-week-old C3H/HeN (Harlan) female mice were anesthetized by inhalation of isoflurane and infected via transurethral catheterization with 50 µl of the bacterial suspension, resulting in 1-2 x 10^7 inoculum. At 6 hpi, mice were sacrificed by cervical dislocation under anesthesia and the bladders were immediately harvested and processed as described below. All animal studies using mice were approved by the Animal Studies Committee of Washington University (Animal Protocol Number 20100002).
Bladder tissue bacterial titer determination. Mannoside ZFH-2056 was administered either IP (5 mg/kg) or orally (100 mg/kg) 30 min prior to inoculation with UTI89. To enumerate the bacteria present, mice were sacrificed at 6 hpi and bladders were aseptically removed and homogenized in 1 ml PBS, serially diluted and plated onto LB agar plates. CFU was enumerated after 16 h of growth at 37 °C.

UTI89 biofilm [8] = test: Disruption of preformed biofilm; type: cell-based, UPEC; settings: for IC50: another 24h
Description: as §3
For biofilm disruption activity in PVC plates, UTI89 was grown in LB broth in wells of PVC microtiter plates at 23°C. After 24 h of growth, mannoside was added and biofilms were grown for an additional 16h. Wells were then rinsed, stained with crystal violet and quantified. For biofilm disruption activity on PVC coverslips, UTI89 was grown in LB broth in 50 mL conicals containing PBC coverslips at 23°C. […] Coverslips were then rinsed, fixed with 2% paraformaldehyde (v/v), stained with SYTO9 (1:1000 in PBS; Molecular Probes) and observed with a Zeiss LSM410 confocal laser scanning microscope under a 63X objective.
UTI89 was grown in LB in PVC plates and allowed to form biofilm at RT for 24 or 48h. […] Biofilm was then allowed to grow for another 24h at RT. Biofilm formation was then quantitated using the standard crystal violet assay.

FimH [9] = biological target: T2, FimH (Escherichia coli, UniProt P08191)
Source text: In order to more accurately determine the relative contributions of both binding affinity to FimH versus other compound properties to the potency seen in the cellular HA titer assay, a high-throughput fluorescence polarization (FP) (or anisotropy) competitive binding assay was developed using a fluorescent-labeled mannoside ligand shown in Scheme 4.
A fluorescent polarization assay was developed and miniaturized to monitor the direct binding of a synthesized fluorescently labeled butyl mannose derivative to the FimH receptor as well as competitive displacement by other synthetic mannosides. This fluorescent polarization assay provides a rapid method for monitoring improvements to receptor affinity during the synthetic process, as well as providing Kd binding affinity measurements.

UTI89 [10] = test: Gentamicin protection assay of infected mouse bladders; type: in vivo, mice; settings: 6 hpi, IP (5 mg/kg) pretreatment
Source text: Based on the extensive elucidation of the UPEC pathogenic cascade, critical nodes in pathogenesis that mannosides would target and thereby have powerful and potent therapeutic ramifications were identified. The first step in the UPEC pathway involves FimH-mediated colonization of the bladder epithelium via the recognition of mannose receptors. Bacterial invasion into superficial bladder umbrella cells can then ensue. […] To test this, a well-established gentamicin protection assay that allows the determination of the luminally bound fraction versus the intracellular fraction was utilized (Fig 10). […] This may be due to contamination from bacteria in the urine or bacteria that are non-specifically associated with the epithelium. In any case, blocking invasion blocks the ability of the bacteria to rapidly expand in numbers. This is due to the ability of the mannosides to block the IBC mechanism.
The efficacy of in vivo mannoside treatment was evaluated after dosing animals with mannoside either IP or PO 30 min prior to infecting with UTI89. At 6 hpi the bladders were removed and total bacterial CFUs were quantitated. […] Gentamicin efficiently kills extracellular UPEC but is unable to penetrate tissue and thus intracellular bacteria survive gentamicin treatment18. […] In bladders from untreated mice, 10^3 - 10^4 CFUs remained after gentamicin treatment.
Gentamicin protection assay. […] The bladders were then bisected twice and washed three times in 500 µl of PBS each. The wash fractions were pooled, lightly spun at 500 rpm for 5 min to pellet exfoliated bladder cells, serially diluted, and plated onto LB agar to obtain the luminal fraction. The bladders were treated with 100 µg of gentamicin/ml for 90 min at 37°C. After treatment, the bladders were washed twice with PBS to eliminate residual gentamicin, homogenized in 1 ml of PBS, serially diluted, and plated onto LB agar to enumberate the CFUs in the intracellular fraction.

PBC-1 [11] = test: Bladder bacterial titer (CFU), mouse UTI model, TMP-SMZ resistant strain; type: in vivo, mice
Description: as §1

[12] = Solubility (qualitative statements); settings: relative to di-ester 15a
[13] = Urine pharmacokinetic analysis of mannoside (LC-MS); type: in vivo, mice
Description: Pharamacokinetic analysis. […] An equal volume of 10 µM internal standard (ZFH-2050) was added to the urine.

FimH [14] = biological target: T2, FimH; settings: previously reported, SPR; cited from earlier work

Question: For COc1cc(Cc2cnc(N)nc2N)cc(OC)c1OC [TMP, Trimethoprim], which MIC (PBC-1 [1]) is on record?
Answer: Its MIC is 256 µg/mL (≈ 882 µM).

Question: What about the concentration in urine [2] of the same compound?
Answer: The concentration in urine was 9950 ± 4360 µg/mL.

Question: With CNC(=O)c1cc(C(=O)NC)cc(-c2ccc(O[C@H]3O[C@H](CO)[C@@H](O)[C@H](O)[C@@H]3O)cc2)c1 [Compound 50, N1,N3-dimethyl-5-[4-[(2R,3S,4S,5S,6R)-3,4,5-trihydroxy-6-(hydroxymethyl)tetrahydropyran-2-yl]oxyphenyl]benzene-1,3-dicarboxamide] as the compound, how does the IC50 (UTI89 biofilm [3]) read?
Answer: The IC50 was 740 nM.

Question: What about the IBCs (UTI89 [4]; 6 hpi, UTI89 pre-incubated with 10 µM) of the same compound?
Answer: The IBCs was “most significant reduction in IBCs”.

Question: And the “IBC counts in the bladder” value (UTI89 [4]; 10^6 inoculum, 6h)?
Answer: The value was “no IBCs observed”.

Question: And the IBC quantification (UTI89 [4]; IP (5 mg/kg) 30 min prior to inoculation, 6 hpi)?
Answer: Its IBC quantification is “significant reduction in IBCs”.

Question: What about the IBC quantification (UTI89 [4]; oral (100 mg/kg) 30 min prior to inoculation, 6 hpi) of the same compound?
Answer: The IBC quantification was “significant reduction in IBCs”.

Question: What about the EC50 (FimH [5]) of the same compound?
Answer: The EC50 was 370 nM.

Question: What about the “difference in cell potency vs. binding (drop in cell activity relative to binding)” value (FimH [5]; HA titer vs FP EC50) of the same compound?
Answer: The value was 4 fold.

Question: What about the “inhibition of FimH-dependent hemagglutination” value (FimH [5]; in words) of the same compound?
Answer: The value was “potent inhibitors”.

Question: And the EC90 (FimH [5]; read-out: HA 50% titer EC90)?
Answer: The EC90 was 370 nM.

Question: And the bladder titers (UTI89 [6]; 5mg/kg 30 min prior, 10^7 UTI89, 24 hpi)?
Answer: Its bladder titers is “significantly reduced bacterial titers”.

Question: And the bladder titers (UTI89 [6]; 50mg/kg 30 min prior, 10^7 UTI89, 6 hpi)?
Answer: The bladder titers was “significantly inhibited bacterial infection”.

Question: What about the bladder titers (UTI89 [6]; 50mg/kg 30 min prior, 10^7 UTI89, 24 hpi) of the same compound?
Answer: Its bladder titers is “significantly reduced bacterial titers”.

Question: What about the 2 week titers (UTI89 [6]; 10^6 inoculum, single dose 5mg/kg 30 min prior) of the same compound?
Answer: The 2 week titers was “significant decrease in bacterial load”.

Question: What about the bacterial titers (UTI89 [6]; 10^6 inoculum, treated vs untreated mice) of the same compound?
Answer: Its bacterial titers is “significant decrease”.

Question: What about the “bacterial titers, post-infection treatment” value (UTI89 [6]; 24hpi, 5mg/kg IP 1h post-infection plus 2 treatments every 8h) of the same compound?
Answer: Its value is “no efficacy observed”.

Question: And the “bacterial titers upon boosting” value (UTI89 [6]; 24hpi, 10^6 inoculum)?
Answer: The value was “not observed”.

Question: What about the “bacterial titers upon boosting” value (UTI89 [6]; 24hpi, 10^7 inoculum) of the same compound?
Answer: The value was “further efficacy”.

Question: What about the bacterial titers (UTI89 [6]; 24hpi, single IP pretreatment 5mg/kg, 10^7 and 10^6 inoculum) of the same compound?
Answer: The bacterial titers was “significant drop in bacterial titers”.

Question: What about the “effect on efficacy of TMP-SMZ killing” value (PBC-1 [1]; 100 µM mannoside) of the same compound?
Answer: Its value is “not found to increase the efficacy of TMP-SMZ killing”.

Question: And the bladder titers (UTI89 [7]; 5mg/kg 30 min prior, 10^7 UTI89, 6 hpi)?
Answer: Its bladder titers is “significantly inhibited bacterial infection”.

Question: And the “total bacterial CFUs” value (UTI89 [7]; IP (5 mg/kg) 30 min prior to inoculation, listed as ZFH-2056, 5 mg/kg)?
Answer: The value was “significant drop in bacterial counts; also recorded: significant drop in bacterial load”.

Question: And the “total bacterial CFUs” value (UTI89 [7]; oral (100 mg/kg) 30 min prior to inoculation)?
Answer: The value was “significant drop in bacterial counts”.

Question: What about the “biofilm structure by confocal microscopy” value (UTI89 biofilm [8]; 0.3 µM, 24 h biofilm plus 16 h) of the same compound?
Answer: Its value is “lacked continuity”.

Question: What about the IC50 (UTI89 biofilm [8]; mannoside added at 24h) of the same compound?
Answer: Its IC50 is roughly 6000 nM.

Question: And the IC50 (UTI89 biofilm [8]; mannoside added at 48h)?
Answer: Its IC50 is roughly 25000 nM.

Question: What about the EC50 (FimH [9]) of the same compound?
Answer: Its EC50 is 87 nM.

Question: What about the luminal bacteria (UTI89 [10]) of the same compound?
Answer: The luminal bacteria was “significantly reduced”.

Question: What about the “intracellular bacteria (CFUs after gentamicin)” value (UTI89 [10]; listed as ZFH-2056) of the same compound?
Answer: Its value is “eliminated all CFUs; also recorded: significantly reduced”.

Question: And the “efficacy against TMP-SMZ resistant strains” value (PBC-1 [11]; Fig. 29)?
Answer: Its value is “increased efficacy”.

Question: What about the “bacterial load in the bladder” value (PBC-1 [11]; IP 30 min prior to inoculation, 6 hpi) of the same compound?
Answer: Its value is “significant drop in bacterial load”.

Question: What about the solubility [12] of the same compound?
Answer: Its solubility is “much improved solubility”.

Question: And the “lower initial urine concentration versus IP” value ([13]; 100 mg/kg PO)?
Answer: The value was 10 fold.

Question: What about the “higher urine levels versus IP” value ([13]; 100 mg/kg PO, 8 hours post-dosing) of the same compound?
Answer: Its value is 10 fold.

Question: What about the “concentration in the urine” value ([13]; IP 5 mg/kg and 10 mg/kg, 30 min after treatment) of the same compound?
Answer: The value was roughly 5000 µM.

Question: What about the “time by which mostly gone (eliminated in the urine)” value ([13]; IP dosing, post injection) of the same compound?
Answer: The value was 6 to 8 h.

Question: And the “drug cleared to the urine intact” value ([13]; mouse, in vivo)?
Answer: Its value is greater than 95%.

Question: And the concentration at 8 h ([13]; mouse, urine, IP, eight hours after dosing, read-out: level in the urine)?
Answer: The concentration at 8 h was no more than 0.74 µM.

Question: Which EC50 (FimH [9]) does the source give for CCCCO[C@H]1O[C@H](CO)[C@@H](O)[C@H](O)[C@@H]1O [Butylαman, α-D-butylmannoside, reference compound] here?
Answer: Its EC50 is 245 nM.

Question: What about the Kd (FimH [14]) of the same compound?
Answer: The Kd was 151 nM.
